From ChEMBL document CHEMBL1201862, “PubChem BioAssay data set” (2004)
Calls of active or inactive are those of the source.

Legend:
[1] = tested on: CHO-K1; experiment: Counterscreen for antagonists of the orexin 1 receptor (OX1R; HCRTR1): Homogeneous time resolved fluorescence (HTRF)-based cell-based dose response assay to identify antagonists of the parental CHO-K1 cell line. [Related pubchem assays (depositor defined):AID434989, AID435008, AID463079, AID485270, AID492963, AID492964, AID492965, AID493232, AID504699, AID504701]; format: functional; settings: Cricetulus griseus;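 note: potency for inhibition of ATP-stimulated IP1 production as antagonists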
[2] = Counterscreen for antagonists of the orexin 1 receptor (OX1R; HCRTR1): Fluorescence-based cell-based high throughput dose response assay to identify antagonists of the parental CHO cell line. [Related pubchem assays (depositor defined):AID434989, AID435008, AID463079, AID485270, AID492963, AID492964, AID492965, AID493232, AID504699, AID504701]; format: functional
[3] = molecular target: T1, Orexin/Hypocretin receptor type 1 (Homo sapiens, UniProt O43613); experiment: Homogeneous Time Resolved Fluorescence (HTRF)-based cell-based high throughput dose response assay for antagonists of the orexin 1 receptor (OX1R; HCRTR1). [Related pubchem assays (depositor defined):AID434989, AID435008, AID463079, AID485270, AID492963, AID492964, AID492965, AID493232, AID504717, AID504718]; format: functional
T1 sequence (O43613 whole entry): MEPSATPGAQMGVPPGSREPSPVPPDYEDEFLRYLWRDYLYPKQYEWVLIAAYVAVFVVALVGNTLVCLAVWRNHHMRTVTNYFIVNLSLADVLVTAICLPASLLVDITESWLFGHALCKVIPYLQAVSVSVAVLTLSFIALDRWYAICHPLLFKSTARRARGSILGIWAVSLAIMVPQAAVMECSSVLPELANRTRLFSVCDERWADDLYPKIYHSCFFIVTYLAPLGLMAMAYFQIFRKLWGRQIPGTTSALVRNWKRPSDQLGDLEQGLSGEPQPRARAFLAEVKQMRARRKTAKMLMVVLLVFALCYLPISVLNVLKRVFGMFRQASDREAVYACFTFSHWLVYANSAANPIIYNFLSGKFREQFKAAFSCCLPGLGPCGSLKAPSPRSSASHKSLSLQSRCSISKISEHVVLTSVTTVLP

[4] = molecular target: T1, Orexin/Hypocretin receptor type 1; experiment: Fluorescence-based cell-based high throughput dose response assay for antagonists of the orexin 1 receptor (OX1R; HCRTR1). [Related pubchem assays (depositor defined):AID434989, AID435008, AID463079, AID485270, AID492963, AID492964, AID492965, AID493232, AID504717, AID504718]; format: functional
[5] = molecular target: T2, Orexin receptor type 2 (Homo sapiens, UniProt O43614); experiment: Counterscreen assay for antagonists of the orexin 1 receptor (OX1R; HCRTR1): Fluorescence-based cell-based dose response assay for antagonists of the orexin 2 receptor (OX2R; HCRTR2), run by assay provider.; format: functional
T2 sequence (O43614 whole entry): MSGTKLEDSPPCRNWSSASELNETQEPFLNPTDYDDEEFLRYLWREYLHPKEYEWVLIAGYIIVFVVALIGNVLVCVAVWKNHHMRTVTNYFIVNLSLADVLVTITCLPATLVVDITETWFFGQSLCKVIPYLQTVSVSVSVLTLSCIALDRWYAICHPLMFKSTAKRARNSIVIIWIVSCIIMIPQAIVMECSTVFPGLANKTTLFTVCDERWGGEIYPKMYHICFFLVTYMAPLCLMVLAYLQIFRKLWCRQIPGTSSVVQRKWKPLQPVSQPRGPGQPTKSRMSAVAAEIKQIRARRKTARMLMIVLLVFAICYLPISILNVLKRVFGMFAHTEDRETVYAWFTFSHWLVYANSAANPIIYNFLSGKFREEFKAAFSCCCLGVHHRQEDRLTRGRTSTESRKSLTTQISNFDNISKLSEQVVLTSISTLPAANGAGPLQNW

[6] = molecular target: T2, Orexin receptor type 2; experiment: Counterscreen assay for antagonists of the orexin 1 receptor (OX1R; HCRTR1): Homogeneous Time Resolved Fluorescence (HTRF)-based cell-based dose response assay for antagonists of the orexin 2 receptor (OX2R; HCRTR2), run by assay provider.; format: functional
[7] = molecular target: Luciferin 4-monooxygenase (Photinus pyralis, UniProt P08659); experiment: inhibition of purified Photinus pyralis luciferase – biochemical, luminescence, dose response (AID 1891)
[8] = Luminescence Cell-Based Dose Confirmation HTS to Identify Inhibitors of Platelet Dense Granule Release. [Related pubchem assays: 1663 (Primary HTS), 1678 (Summary of Project)]; format: functional
[9] = viability loss in HepG2 hepatoma cells – cell-based, ATP luminescence, cherry-pick, activator set 2, cytotoxicity control, dose response (AID 1053143); format: functional
[10] = luciferase reporter signal suppression in cells – H4 neuroglioma cells, luminescence, dose response (AID 1990); format: functional, cell-based
[11] = tested on: BJ; experiment: BJ-TERT fibroblast viability loss – cell-based, RAS-independent, luminescence, dose response (AID 1933); format: functional; settings: Homo sapiens
[12] = Luminescence Cell-Based Dose Response HTS to Identify Inhibitors of 5'UTR Stem-Loop Driven Prion Protein mRNA Translation in H4 Neuroglioblastoma Cells. [Related pubchem assays: 1827 (Project Summary), 1813 (Primary HTS)]; format: functional
[13] = alpha-synuclein stem-loop luciferase translation blockers – H4 neuroglioma cells, luminescence, confirmation (AID 1988); format: functional, cell-based
[14] = tested on: BJ; experiment: cells; format: functional, cell-based; settings: Homo sapiens
[15] = microbe, parasite or virus in culture; format: functional; settings: Mycobacterium tuberculosis
[16] = tested on: BJ; experiment: BJ-TERT-LT-ST fibroblast viability loss – cell-based, RAS-independent, luminescence, dose response (AID 1935); format: functional; settings: Homo sapiens;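 note: BJ fibroblasts immortalized with TERT plus LT and ST oncogenes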
[17] = DRD fibroblast viability loss – cell-based, non-viral oncogenic, luminescence, dose response (AID 1934); format: functional; settings: Homo sapiens
[18] = HEK-293T viability loss after treatment – luminescence, T-cell screen hits, cytotoxicity control for TCR NF-kB inhibitor project, dose response (AID 489026); format: functional, cell-based;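 note: cells exposed to compound about 14 hours before the viability readout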
[19] = tested on: BJ; experiment: growth inhibition of engineered Ras-driven BJ cells – cell-based, alamar blue fluorescence, cherrypicked samples, dose response (AID 2631); format: functional; settings: Homo sapiens;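 note: confirmatory dose-response assay in RAS-dependent BJ fibroblasts engineered with TERT, LT and ST, with cytotoxicity read by fluorescence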
[20] = molecular target: T3, Microphthalmia-associated transcription factor (Homo sapiens, UniProt O75030); experiment: reducers of TRPM1 reporter luminescence, concentration series – cell-based, SK-MEL-5, cherry-picked, set 3, MITF inhibitor project, dose response (AID 493073); format: functional;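 note: SK-MEL-5 melanoma cells with luciferase driven by the MITF target TRPM1 promoter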
T3 sequence (O75030 whole entry): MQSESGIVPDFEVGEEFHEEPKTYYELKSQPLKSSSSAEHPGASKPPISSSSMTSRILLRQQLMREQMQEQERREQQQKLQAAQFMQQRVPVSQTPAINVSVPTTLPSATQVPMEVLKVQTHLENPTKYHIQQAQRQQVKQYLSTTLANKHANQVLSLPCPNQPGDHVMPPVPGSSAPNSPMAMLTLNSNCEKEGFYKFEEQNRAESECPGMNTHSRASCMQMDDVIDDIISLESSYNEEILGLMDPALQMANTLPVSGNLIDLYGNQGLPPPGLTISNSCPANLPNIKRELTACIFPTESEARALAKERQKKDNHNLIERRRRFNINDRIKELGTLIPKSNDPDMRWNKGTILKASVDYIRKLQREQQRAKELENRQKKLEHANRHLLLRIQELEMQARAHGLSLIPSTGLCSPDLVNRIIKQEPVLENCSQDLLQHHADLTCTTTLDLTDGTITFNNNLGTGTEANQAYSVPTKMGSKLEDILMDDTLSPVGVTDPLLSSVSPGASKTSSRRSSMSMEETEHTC

[21] = tested on: CHO; experiment: CHO cell viability loss, potency – luminescence, cytotoxicity control for TLR9-MyD88 binding inhibitor project, dose response (AID 588339); format: functional, cell-based, hamster; settings: Cricetulus griseus;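 note: CHO cells stably coexpressing TLR9 and MyD88 fusions from primary screen; compound exposure lasted 48 hours before viability readout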
[22] = reduction of Shn3 3'UTR-driven luciferase in osteoblasts – cell-based, Clone20 osteoblasts, firefly luciferase, cherry-picked, dose response (AID 624132); format: functional;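 note: firefly luciferase luminescence from reporter carrying the Shn3 3'UTR in osteoblasts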
[23] = loss of viability in HepG2 cells – cell-based, CellTiter-Glo, cherry-picked, cytotoxicity control for Shn3 inhibitor project, dose response (AID 624134); format: functional
[24] = non-specific 3'UTR reporter inhibition in Clone20-Shn3RL – cell-based, Renilla luciferase, cherry-picked, counter-screen for Shn3 inhibitor project, dose response (AID 624133); format: functional
[25] = molecular target: Paired box protein Pax-8 (Homo sapiens, UniProt Q06710); experiment: PAX8 transcriptional activity inhibition in RMG-I – RMG-I cells, luciferase, cherry-pick, dose response (AID 687027); format: functional, cell-based;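 note: luciferase reporter driven by Pax8 target thyroperoxidase promoter measured by SteadyGlo luminescence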
[26] = general cell-killing toxicity readout – plate reader, dry powder samples, cytotoxicity control for PAX8 inhibitor project, dose response (AID 743021); format: functional, cell-based
[27] = molecular target: Heat shock protein HSP 90-alpha (Homo sapiens, UniProt P07900); format: functional, organism-based
[28] = molecular target: Ras and Rab interactor 1/Tyrosine-protein kinase ABL1 (Homo sapiens, UniProt P00519+Q13671); format: functional;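 note: biochemical TR-FRET dose-response test measuring inhibition of binding between Rin1 and Abl proteins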
[29] = viability of uninfected HEp-2 cells – cell-based, HTS, cytotoxicity control for RSV inhibitor project, dose response (AID 2410); format: functional; settings: human respiratory syncytial virus
[30] = molecular target: T4, Heat shock factor protein 1 (Mus musculus, UniProt P38532); experiment: enhancement of HSF1-driven luciferase signal – cell-based, NIH3T3, luminescence, dose retest, confirmation (AID 435004); format: functional;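 note: stress induced by proteasome inhibitor MG132 added 30 min after compound; luciferase reporter driven by HSF1 response element in NIH3T3 cells; actives raise luminescence as potentiators of the MG132 stress response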
T4 sequence (P38532 whole entry): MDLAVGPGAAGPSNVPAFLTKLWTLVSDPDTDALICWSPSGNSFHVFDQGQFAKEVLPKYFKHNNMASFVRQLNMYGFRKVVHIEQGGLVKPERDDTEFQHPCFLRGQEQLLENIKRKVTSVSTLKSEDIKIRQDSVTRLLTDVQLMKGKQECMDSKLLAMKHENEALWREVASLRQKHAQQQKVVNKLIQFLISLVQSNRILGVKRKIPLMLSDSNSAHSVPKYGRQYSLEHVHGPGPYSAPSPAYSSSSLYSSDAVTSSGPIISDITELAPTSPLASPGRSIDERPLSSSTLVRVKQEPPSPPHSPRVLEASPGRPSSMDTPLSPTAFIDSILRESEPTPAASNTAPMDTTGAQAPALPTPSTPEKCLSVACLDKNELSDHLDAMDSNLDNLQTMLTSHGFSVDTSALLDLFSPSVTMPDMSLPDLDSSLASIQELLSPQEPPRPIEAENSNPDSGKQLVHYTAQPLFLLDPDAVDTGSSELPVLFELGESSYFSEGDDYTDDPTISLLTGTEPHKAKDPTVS

Sequence of Paired box protein Pax-8 (Q06710 whole entry): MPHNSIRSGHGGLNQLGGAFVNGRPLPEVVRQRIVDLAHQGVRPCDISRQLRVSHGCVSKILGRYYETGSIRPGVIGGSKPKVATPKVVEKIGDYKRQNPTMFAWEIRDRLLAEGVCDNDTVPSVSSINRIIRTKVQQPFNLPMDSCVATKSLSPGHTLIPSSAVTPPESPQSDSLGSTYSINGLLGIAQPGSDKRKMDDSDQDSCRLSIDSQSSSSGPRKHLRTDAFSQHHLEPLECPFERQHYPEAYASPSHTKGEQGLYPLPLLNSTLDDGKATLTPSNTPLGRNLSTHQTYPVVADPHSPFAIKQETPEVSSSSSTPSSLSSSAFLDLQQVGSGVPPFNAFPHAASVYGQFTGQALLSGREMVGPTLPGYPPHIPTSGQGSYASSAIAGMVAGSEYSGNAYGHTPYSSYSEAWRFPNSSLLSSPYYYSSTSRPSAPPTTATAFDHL
Sequence of Ras and Rab interactor 1/Tyrosine-protein kinase ABL1 (P00519 whole entry): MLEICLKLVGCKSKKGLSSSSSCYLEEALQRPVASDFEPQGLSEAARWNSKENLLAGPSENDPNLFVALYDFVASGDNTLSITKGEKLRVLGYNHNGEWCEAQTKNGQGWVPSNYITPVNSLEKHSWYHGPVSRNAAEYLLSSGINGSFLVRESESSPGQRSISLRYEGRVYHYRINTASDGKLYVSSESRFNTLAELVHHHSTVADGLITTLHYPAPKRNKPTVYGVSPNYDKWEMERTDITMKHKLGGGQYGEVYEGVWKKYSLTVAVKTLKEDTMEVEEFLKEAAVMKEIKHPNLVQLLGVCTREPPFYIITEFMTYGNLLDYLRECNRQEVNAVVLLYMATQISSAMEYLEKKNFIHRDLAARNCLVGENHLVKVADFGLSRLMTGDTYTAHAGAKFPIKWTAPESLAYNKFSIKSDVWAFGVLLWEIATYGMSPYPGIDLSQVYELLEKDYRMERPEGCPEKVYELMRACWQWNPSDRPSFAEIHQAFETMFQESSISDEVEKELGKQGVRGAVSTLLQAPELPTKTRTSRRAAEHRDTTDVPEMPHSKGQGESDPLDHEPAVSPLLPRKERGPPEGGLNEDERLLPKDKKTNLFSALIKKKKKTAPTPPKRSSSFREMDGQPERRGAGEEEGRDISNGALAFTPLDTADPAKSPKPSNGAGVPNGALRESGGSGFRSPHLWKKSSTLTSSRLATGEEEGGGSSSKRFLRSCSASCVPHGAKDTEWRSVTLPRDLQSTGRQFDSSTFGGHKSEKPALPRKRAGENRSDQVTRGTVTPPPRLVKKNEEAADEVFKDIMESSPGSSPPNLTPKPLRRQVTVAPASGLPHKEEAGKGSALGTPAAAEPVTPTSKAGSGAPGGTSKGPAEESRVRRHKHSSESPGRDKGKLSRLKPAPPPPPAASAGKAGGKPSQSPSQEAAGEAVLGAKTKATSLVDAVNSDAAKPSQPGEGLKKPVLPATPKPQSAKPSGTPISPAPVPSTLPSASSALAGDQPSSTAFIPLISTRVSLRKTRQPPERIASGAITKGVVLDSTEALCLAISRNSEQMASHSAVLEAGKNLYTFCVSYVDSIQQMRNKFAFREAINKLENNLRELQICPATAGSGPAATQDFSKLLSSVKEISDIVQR
Sequence of Ras and Rab interactor 1/Tyrosine-protein kinase ABL1 (Q13671 whole entry): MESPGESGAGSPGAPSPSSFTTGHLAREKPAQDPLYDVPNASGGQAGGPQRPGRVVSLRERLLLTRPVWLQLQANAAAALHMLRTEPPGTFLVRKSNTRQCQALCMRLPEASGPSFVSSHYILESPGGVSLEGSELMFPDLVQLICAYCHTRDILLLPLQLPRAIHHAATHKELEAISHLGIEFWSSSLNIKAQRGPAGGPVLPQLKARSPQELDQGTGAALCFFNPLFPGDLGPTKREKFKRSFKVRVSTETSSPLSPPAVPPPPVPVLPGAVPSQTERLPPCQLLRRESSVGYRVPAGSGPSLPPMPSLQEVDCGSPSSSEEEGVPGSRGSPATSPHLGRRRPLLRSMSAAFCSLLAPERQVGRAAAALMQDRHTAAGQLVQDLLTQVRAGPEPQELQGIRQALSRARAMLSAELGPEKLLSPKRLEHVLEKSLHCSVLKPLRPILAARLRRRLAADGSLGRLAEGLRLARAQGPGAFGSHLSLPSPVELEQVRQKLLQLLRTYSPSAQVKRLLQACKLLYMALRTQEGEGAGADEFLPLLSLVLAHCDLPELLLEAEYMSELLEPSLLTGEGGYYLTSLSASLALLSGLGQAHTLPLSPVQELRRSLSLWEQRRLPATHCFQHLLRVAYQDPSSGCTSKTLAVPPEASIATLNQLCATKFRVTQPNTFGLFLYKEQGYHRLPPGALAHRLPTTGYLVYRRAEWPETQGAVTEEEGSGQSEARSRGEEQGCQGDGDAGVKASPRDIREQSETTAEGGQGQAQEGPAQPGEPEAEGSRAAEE
Sequence of Luciferin 4-monooxygenase (P08659 whole entry): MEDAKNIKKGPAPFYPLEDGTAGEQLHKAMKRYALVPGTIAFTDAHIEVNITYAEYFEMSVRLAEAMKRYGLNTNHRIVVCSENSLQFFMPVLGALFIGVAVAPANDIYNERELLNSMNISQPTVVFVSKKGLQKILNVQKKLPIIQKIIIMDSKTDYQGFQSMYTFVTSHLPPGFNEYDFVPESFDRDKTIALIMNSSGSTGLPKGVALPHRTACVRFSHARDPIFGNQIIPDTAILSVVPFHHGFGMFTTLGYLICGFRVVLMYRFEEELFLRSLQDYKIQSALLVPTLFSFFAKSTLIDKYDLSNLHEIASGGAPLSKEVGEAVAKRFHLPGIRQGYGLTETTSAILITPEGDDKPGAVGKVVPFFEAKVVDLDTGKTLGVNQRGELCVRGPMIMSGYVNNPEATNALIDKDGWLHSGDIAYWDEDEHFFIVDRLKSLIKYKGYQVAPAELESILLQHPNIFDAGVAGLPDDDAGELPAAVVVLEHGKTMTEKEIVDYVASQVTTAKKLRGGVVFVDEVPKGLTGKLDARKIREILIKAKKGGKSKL

Structure (SMILES): Cc1noc(C)c1COc1ccc(C(=O)OCC(=O)N2CC(=O)Nc3ccccc32)cc1
- IC50 [1]: > 66.2 µM (inactive)
- IC50 [2]: > 49.8 µM (inactive)
- IC50 [3]: 14.9 µM (inactive)
- IC50 [4]: 0.861 µM (active)
- IC50 [5]: > 88.8 µM (inactive)
- IC50 [6]: > 50 µM (inactive)

Structure (SMILES): COc1cccc2oc3ccc(C#Cc4ccccn4)cc3c(=O)c12
- EC50 [7]: 1.19 µM (active)
- EC50 [8]: 5.1 µM (active)
- IC50 [1]: > 66.2 µM (inactive)
- IC50 [2]: > 49.8 µM (inactive)
- IC50 [3]: 0.881 µM (active)
- IC50 [4]: 13.5 µM (inactive)
- IC50 [5]: > 88.8 µM (inactive)
- IC50 [6]: 0.82 µM (active)
- AC50 [9]: 16.4 µM (active)

Structure (SMILES): CCCCOc1ccc(Br)cc1/C(C)=N/NC1=NCCN1
- EC50 [10]: 4.71 µM (inconclusive)
- EC50 [11]: 3.18 µM (inconclusive)
- EC50 [12]: 4.92 µM (active)
- EC50 [13]: 3.86 µM (active)
- EC50 [14]: 8.49 µM (inconclusive)
- CC50 [15]: 8.31 µM (active)
- EC50 [16]: 6.41 µM (inconclusive)
- EC50 [17]: 6.08 µM (active)
- IC50 [18]: 46.8 µM (inactive)
- EC50 [19]: 0.619 µM (inconclusive)

Structure (SMILES): CS(=O)(=O)c1ccc(C(=O)OCC(=O)NCc2cccs2)cc1[N+](=O)[O-]
- AC50 [20]: 11.7 µM (active)
- IC50 [21]: 4.83 µM (active)
- AC50 [22]: 2.07 µM (active)
- AC50 [23]: 62.3 µM (active)
- AC50 [24]: 13.4 µM (active)
- AC50 [25]: 14 µM (active)
- AC50 [26]: 26 µM (active)

Structure (SMILES): CC1(C(=O)c2ccccc2)C2c3c(ccc4ccccc34)OC(=O)C21C(=O)N1CCOCC1 (configuration not stated)
- AC50 [27]: 4.17 µM (active)

Structure (SMILES): Cn1c(=O)c2c(nc(-n3ccnc3)n2Cc2ccc(Cl)cc2Cl)n(C)c1=O
- IC50 [28]: 2.62 µM (active)

Structure (SMILES): CCOC(=O)N1CCN(C(=O)CSc2ccc(-c3ccccc3)nn2)CC1
- IC50 [1]: > 66.2 µM (inactive)
- IC50 [2]: > 49.7 µM (inactive)
- IC50 [3]: 2.12 µM (active)
- IC50 [4]: 16.3 µM (inactive)
- IC50 [5]: > 88.8 µM (inactive)
- IC50 [6]: > 50 µM (inactive)

Structure (SMILES): C(=N\Nc1nc2ccccc2[nH]1)/c1ccc2ncccc2c1
- CC50 [29]: 2.99 µM (active)
- EC50 [11]: 10.8 µM (active)
- EC50 [14]: 2.75 µM (inconclusive)
- EC50 [16]: 30.7 µM (active)
- EC50 [17]: 2.32 µM (inconclusive)
- EC50 [19]: > 133 µM (inactive)

Structure (SMILES): O=C(c1ccc2c(=O)n(C3CCCC3)c(=S)[nH]c2c1)N1CCc2ccccc21
- EC50 [30]: > 260 µM (inactive)
- AC50 [27]: 3.49 µM (active)

Structure (SMILES): Cc1c(CCCl)c(Cl)n2c(nc3ccccc32)c1C#N
- AC50 [27]: 3.86 µM (active)
- AC50 [22]: 0.912 µM (active)
- AC50 [23]: 8.13 µM (active)
- AC50 [24]: 2.98 µM (active)
